From ChEMBL document CHEMBL1156553, “Prenylated dihydrochalcones from Boronia bipinnata that inhibit the malarial parasite enzyme target hemoglobinase II” (J Nat Prod, 2008)

Assay: Inhibition of recombinant hemoglobinase 2
`CC(C)=CCC/C(C)=C/Cc1cc(CCC(=O)c2c(O)cc(O)cc2O)ccc1O` [BIPINNATONE B] gave an IC50 of 51 µM.
In the case of `CC(C)=CCC/C(C)=C/CC/C(C)=C/Cc1cc(CCC(=O)c2c(O)cc(O)cc2O)ccc1O` [BIPINNATONE A], the IC50 is reported as 64 µM.
`CC(C)CC(=O)N[C@H](C(=O)N[C@H](C(=O)N[C@@H](CC(C)C)[C@@H](O)CC(=O)N[C@@H](C)C(=O)N[C@@H](CC(C)C)[C@@H](O)CC(=O)O)C(C)C)C(C)C` [PEPSTATIN] gave an IC50 of 0.003 µM.
